Target: Beta-adrenergic receptor (Mus musculus, UniProt P34971+P18762+P25962)
Experiment: Effective concentration against 125I]iodocyanopindolol(ICYP) binding to beta adrenergic receptor was determined
Type: protein assay

| SMILES | EC50 [µM] |
| --- | --- |
| NCCCNCC(O)c1ccc(O)c(O)c1 (configuration not stated) | 160 |
| CC(CCCCNC(=O)OCc1ccccc1)NCC(O)c1ccc(O)c(O)c1 (configuration not stated) | 0.049 |

Source: ChEMBL document CHEMBL1122997, “Conjugates of catecholamines. 5. Synthesis and beta-adrenergic activity of N-(aminoalkyl)norepinephrine derivatives” (J Med Chem, 1985)
